US12427161B2, “Methods for treating and pharmaceutical compositions” (Boehringer Ingelheim International GmbH, priority 2015, dated 2025)

Columns and labels:
[1] = system: Goto-Kakizaki diabetic rats (GK rats); assay: Erectile responses to electrical stimulation of the cavernous nerve (ES CN), intracavernous pressure in anesthetized rats; format: in vivo, rat
Procedure: Adult male Wistar (Charles River, France) and age-matched GK rats (Metabrain Research, Chilly-Mazarin, France) were housed at least 7 days prior to the beginning of the treatment with free access to control diet and water and maintained on an inversed 12 h dark/light cycle. At 15 weeks of age, treatments were started; n=12 Wistar (group I) rats and n=24 GK (group II) rats were fed with a control diet, while n=24 GK rats (group III) were fed for 28 days by a medicated diet i.e., control diet premixed with empagliflozin 300 ppm (parts per million corresponding to an average of 25.3 mg/kg body weight of empaglfilozin in that experiment).
On day 29th after starting treatment administration, and approximately 16 hours after the last treatment administration, fasted rats (19 weeks of age) underwent an in vivo evaluation of their erectile function after electrical stimulation of the cavernous nerve (ES CN), in comparison to acute dosing of sildenafil.
Erectile responses were elicited by electric stimulation (ES) of the cavernous nerve (CN) and measured by monitoring intracavernous pressure (ICP) in anesthetized rats according to an experimental procedure previously described and well-standardized. After an overnight fasting period, rats were anesthetized (urethane […]) and their temperature maintained at 37° C. using a homoeothermic blanket. A tracheotomy was performed to prevent aspiration of saliva and to perform, when required, artificial ventilation. The carotid artery was catheterized with polyethylene tubings filled with heparinized saline (25 UI/ml) to record blood pressure (BP) via a pressure transducer (Elcomatic 750, Glasgow, UK). Simultaneous computerized measure of BP and ICP was performed. CN was exposed at the lateral aspect of the prostate, with the aid of a dissecting microscope and mounted on a bipolar platinum electrode connected to an electrical stimulator (AMS 2100, Phymep, France). In some animals an acute dose of sildenafil (0.3 mg/kg) or vehicle was intravenously injected. […] The CN was stimulated at 6V, 1 ms for 45 s by different stimulation frequencies (0, 2.5, 5, 7.5, 10, 12.5 and 15 Hz) in a randomized manner in order to assess the erectile responses. These different electrical stimulations on the increase of ICP were repeated twice in view of establishing a frequency-response curve for each animal.
Mean arterial pressure (MAP) and the amplitude of the erectile responses elicited by each ES CN were quantified for each rat and averaged for each experimental group by calculating: • ICP (mmHg)/MAP (mmHg)×100 with AICP being the difference between ICP in the flaccid state, i.e. before stimulation and ICP during the plateau phase of the erectile response, and MAP, the mean arterial pressure during the plateau phase. • AUC45/MAP with AUC45, the area under the curve during the first 45 seconds after the beginning of the electrical stimulation of the cavernous nerve and determined using the ICP level in the flaccid state before the onset of the stimulation. • AUCtot/MAP with AUCtot, the area under the curve during the entire erectile response, measured from the beginning of the electrical stimulation until the end of the erectile response and determined using the ICP level in the flaccid state before the onset of the stimulation. • ICP increase and AUC were normalized with MAP to account for the close influence of the systemic blood pressure in the amplitude of ICP increase during the plateau phase of the erectile response.
For erectile function evaluation, comparisons of frequency-response curves were performed with a two-way ANOVA statistical analysis test followed by a Bonferroni's post-test. In case of significant interaction between the two factors (i.e. frequency of ES CN and experimental group), the difference between groups of rats was examined by the modified Student's t-test with the Bonferroni's adjustment for multiple comparisons.

[2] = system: corporal strips of diabetic GK rats; assay: EFS-induced relaxation of PHE-precontracted corpora cavernosa strips (ex vivo isometric tension); set-up: species or system rat
Procedure: In addition, to further evaluate erectile function, at the end of the in vivo evaluation of the ED, the penis of 24 GK rats (groups IIA & IIIA) and 12 wistar rats (group I) were immediately harvested and the corpora cavernosa (CC) dissected for ex vivo isometric tension studies. After extensive washings, corporal strips were incubated in the presence of guanethidine (5 μM) and atropine (1 μM) that were also added to the organ chambers for the remainder of the experiments. The corporal strips were placed between two parallel platinum electrodes in the organ baths. After equilibration (60 min), the electric field stimulation (EFS) experiments were started. Firstly, a priming period was observed where corporal strips from Wistar, GK (control) and GK_Chronic empa were exposed to phenylephrine (PHE) (10^−5 M) followed by an EFS-induced relaxation at 1 ms, 10 s, 300 mA and 20 Hz. Then, after washings, frequency-response curves (FRC) to EFS (1-2-4-8-16-32 Hz) was constructed on PHE-precontracted corporal strips (PHE 10^−5 M). Frequency response-curves (FRC) to EFS were performed by successive stimulation of the corporal strips at 1 ms, 10 s, 300 mA and increasing frequencies (1, 2, 4, 8, 16 and 32 Hz). […]
The results from duplicate determinations in one experiment with CC from one rat were averaged and the data expressed as mean±SEM for N experiments using CC from N different rats. […]

[3] = metformin on its own, in the diabetic; cited from earlier work
GK rats = conditions: acute single dose 0.3 mg/kg; cited from earlier work

## OC[C@H]1O[C@@H](c2ccc(Cl)c(Cc3ccc(O[C@H]4CCOC4)cc3)c2)[C@H](O)[C@@H](O)[C@@H]1O [empagliflozin, 1-chloro-4-(β-D-glucopyranos-1-yl)-2-[4-((S)-tetrahydrofuran-3-yloxy)-benzyl]-benzene]
[1]; chronic empagliflozin 25.3±0.9 mg/kg/day
  pro-erectile facilitator effect compared with acute IV dose of sildenafil at 0.3 mg/kg: slightly but significantly lower
[1]; empagliflozin in diet 25.3±0.9 mg/kg/day for 4 weeks, vs GK control diet, p=0.08, 2-way ANOVA, FIG. 1
  erectile responses to ES CN in terms of ΔICP/MAP: no difference could be statistically detected
[1]; empagliflozin premixed with diet 25.3±0.9 mg/kg/day for 4 weeks, vs GK control diet, p<0.05, FIG. 2a
  erectile responses to ES CN in terms of AUC45/MAP: improved
[1]; empagliflozin premixed with diet 25.3±0.9 mg/kg/day for 4 weeks, vs GK control diet, p<0.05, FIG. 2b
  erectile responses to ES CN in terms of AUCtot/MAP: improved
[2]; 4-week empagliflozin 25.3±0.9 mg/kg/d, mean±SEM, not significantly different from untreated
  maximal relaxation induced by EFS at 32 Hz (percentage of inhibition of the contractile response to PHE): −42.0±2.9%
[2]; 4-week treatment of empagliflozin at 25.3±0.9 mg/kg/d, vs untreated GK, p<0.05, 2-way ANOVA, FIG. 3
  relaxation induced by EFS on PHE precontracted cavernosal strips (frequency-response curve): slightly but significantly improved

## CN(C)C(=N)N=C(N)N [metformin]
[3]
  average improvement in the HbA1c value: 1.0-1.5%

## CCCc1nn(C)c2c(=O)[nH]c(-c3cc(S(=O)(=O)N4CCN(C)CC4)ccc3OCC)nc12 [sildenafil]
[1]; sildenafil 0.3 mg/kg acute i.v. 4 min before evaluation, vs GK control, p<0.0001, 2-way ANOVA, FIG. 1
  erectile response to ES CN in terms of ΔICP/MAP: significantly increased
[1]; sildenafil 0.3 mg/kg acute i.v., vs GK control, p<0.0001, 2-way ANOVA, FIG. 2a
  erectile response to ES CN in terms of AUC45/MAP: significantly increased
[1]; sildenafil 0.3 mg/kg acute i.v., vs GK control, p<0.0001, 2-way ANOVA, FIG. 2b
  erectile response to ES CN in terms of AUCtot/MAP: significantly increased
GK rats
  impaired erectile function in GK rats: partially improved
